According to patent US11484591B2, “Chemoprevention using controlled-release formulations of anti-interleukin 6 agents, synthetic vitamin A analogues or metabolites, and estradiol metabolites” (OHIO STATE INNOVATION FOUNDATION, priority 2016, dated 2022):
Entries after “also recorded” stand apart in the source; their conditions may differ.

Legend:
STAT3 = STAT3 cytosolic phosphorylation and nuclear translocation, immunoblots of OSCC cell lines; type: cell-based, human
Description: FIGS. 2A, 2B, and 2C show the treatment effects of fenretinide (4-HPR, 5 μM), 2-methoxyestradiol (2-ME, 2.5 μM) and the STAT3 inhibitor LY5 (0.5 μM) on STAT3 phosphorylation and nuclear translocation. (A) (JSCC1 cells) (B) (JSCC2 cells) and (C) (JSCC3 cells) were evaluated. Cytosolic and nuclear proteins were harvested from sera deprived JSCC1 and JSCC2 cell lines following 24 h of treatment (5 μM 4-HPR, 2.5 μM 2-ME, or 0.5 μM LY5) or vehicle (0.1% DMSO) control. […] As the JSCC3 cells don't constitutively express pSTAT3, these cells underwent 24 h stimulation in base medium supplemented with 10 ng/mL of IL-6 or 5 ng/mL of TGF-α, with or without 4-HPE, 2-ME or LY5 treatment, followed by harvest. […] (n=3, p<0.05, Wilcoxon matched pairs signed rank test).
Dosing levels were determined by concurrent proliferation and viability studies in conjunction with literature values. The cells in every treatment group were then stimulated for 20 minutes with: vehicle (1 μl ddH2O), 50 ng/ml EGF, 50 ng/ml VEGF, or 50 ng/ml EGF+50 ng/ml VEGF, followed by standard immunoblotting and data normalization relative to GAPDH. […] Immunoblot images were captured (Li-Cor Odyssey imager) and analyzed (Li-Cor Image Studio, Version 4.0) to depict effects on treatment on phosphorylation relative to respective levels of GAPDH. […]

IL-6 = IL-6 release from OSCC cells (ELISA); type: cell-based, human; conditions: 5 μM, fresh treatment q.d., base medium, 48 h
Description: Conditioned media from 24-hour sera-deprived JSCC-1, JSCC-2 and JSCC3 cells were analyzed using the Proteome Profiler Human Cytokine XL Array (R&D Systems, Minneapolis, Minn.), with image capture and analyses via the Li-Cor Odyssey imager and Image Studio software (Li-Cor Biosciences, Lincoln, Nebr.). Sera-free conditioned media for IL-6, VEGF, TGF-α and EGF were analyzed by ELISAs (R&D Systems, Minneapolis, Minn.), with data expressed as pg/10^6 cells.
) 0.01% DMSO (vehicle control), 2) 5 μM 4-HPR, 3) 2.5 μM 2-ME, 4) 1 μg/ml tocilizumab (TOC, […]) 5) 5 μM 4-HPR+2.5 μM 2-ME, 6) 5 μM 4-HPR+1 μg/ml TOC, 7) 2.5 μM 2-ME+1 μg/ml TOC, 8) 5 μM 4-HPR+2.5 μM 2-ME+1 μg/ml TOC. Following treatment, conditioned media were collected (ELISAs for IL-6, sIL-6R, TGF-α, VEGF, EGF, R&D Systems, Minneapolis, Minn.) and nuclear and cytosolic lysates (Nuclear Extract Kit, Active Motif, Carlsbad, Calif.) isolated for EMSAs (STAT3, NFκB p50 and p65, TransAM Transcription Factor ELISAs, Active Motif) and cytosolic and nuclear extracts for Westerns (NE-PER Nuclear and Cytoplasmic Extraction Reagents, ThermoFisher Scientific, Waltham Mass.). […]

[1] = cited from earlier work
[2] = system: OSCC migration and invasion; conditions: cited from earlier work

SMILES: CC1=C(/C=C/C(C)=C/C=C/C(C)=C/C(=O)Nc2ccc(O)cc2)C(C)(C)CCC1 [4-HPR, 4-hydroxy(phenyl)retinamide]
- constitutive STAT3 phosphorylation and pSTAT3 nuclear translocation (STAT3; JSCC1 and JSCC2 cells, 5 μM, 24 h): suppressed; also recorded: significantly reduced
- suppression of STAT3 activation and nuclear translocation relative to STAT3 inhibitor LY5 (STAT3; JSCC1 cells, 5 μM 4-HPR vs 0.5 μM LY5): appreciably more effectively
- increase of IL-6 release (IL-6; JSCC1 cells): ~50%
- increase of IL-6 release (IL-6; JSCC2 cells): ~20%
- log P [1]: 8.03
- OSCC migration and invasion [2]: significantly inhibits
